Data: patent US10597388B2, “Pyridazinone herbicides” (FMC CORPORATION, priority 2014, dated 2020)

What was measured:
Format in all cases: in vivo
[1] = system: wheat, spring (spring wheat, Triticum aestivum); test: Test D controlled growth environment herbicide test, pre- and postemergence
Method in brief: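 Pre-emergence: seeds sown in silt loam soil were sprayed with compound in a non-phytotoxic solvent mix containing surfactant. Post-emergence: plants at 2 to 18 cm (1- to 4-leaf stage) in peat moss/vermiculite medium got the same formulation. Visual 0–100 rating versus controls after 14 to 21 d.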

[2] = system: panicum, fall (fall panicum, Panicum dichotomiflorum); test: Test E greenhouse herbicide test, pre- and postemergence; conditions: Postemergence
Source text: (§1) Seeds of plant species selected from corn (Zea mays), soybean (Glycine max), velvetleaf (Abutilon theophrasti), lambsquarters (Chenopodium album), wild poinsettia (Euphorbia heterophylla), pigweed, palmer (palmer pigweed, Amaranthus palmeri), waterhemp (common waterhemp, Amaranthus rudis), surinam grass (Brachiaria decumbens), crabgrass, large (large crabgrass, Digitaria sanguinalis), crabgrass, Brazilian (Brazilian crabgrass, Digitaria horizontalis), panicum, fall (fall panicum, Panicum dichotomiflorum), foxtail, giant (giant foxtail, Setaria faberii), foxtail, green (green foxtail, Setaria viridis), goosegrass (Eleusine indica), johnsongrass (Sorghum halepense), ragweed (common ragweed, Ambrosia elatior), barnyardgrass (Echinochloa crus-galli), sandbur (southem sandbur, Cenchrus echinatus), arrowleaf sida (Sida rhombifolia), Italian ryegrass (Lolium multiflorum), dayflower (Virginia (VA) dayflower, Commelina virginica), field bindweed (Convolvulus arvensis), momingglory (Ipomoea coccinea), nightshade (eastern black nightshade, Solanum ptycanthum), kochia (Kochia scoparia), nutsedge, yellow (yellow nutsedge, Cyperus esculentus), horseweed (Conyza canadensis), and beggarticks (hairy beggarticks, Bidens pilosa), were planted into a silt loam soil and treated preemergence with test chemicals formulated in a non-phytotoxic solvent mixture which included a surfactant.
(§2) At the same time, plants from these crop and weed species and also waterhemp_RES1, (ALS & Triazine resistant common waterhemp, Amaranthus rudis), and waterhemp_RES2, (ALS & HPPD resistant common waterhemp, Amaranthus rudis) were planted in pots containing Redi-Earth® planting medium (Scotts Company, 14111 Scottslawn Road, Marysville, Ohio 43041) comprising spaghnum peat moss, vermiculite, wetting agent and starter nutrients were treated with postemergence applications of test chemicals formulated in the same manner. Plants ranged in height from 2 to 18 cm for postemergence treatments (1- to 4-leaf stage). Treated plants and controls were maintained in a greenhouse for 14 to 21 d, after which time all species were compared to controls and visually evaluated. Plant response ratings, summarized in Table E, are based on a scale of 0 to 100 where 0 is no effect and 100 is complete control. A dash (-) response means no test result.

[3] = system: dayflower (Virginia (VA) dayflower, Commelina virginica); test: as above; conditions: Postemergence
Source text: as §1, §2

[4] = system: horseweed (Conyza canadensis); test: as above; conditions: Postemergence
Source text: as §1, §2

[5] = system: field bindweed (Convolvulus arvensis); test: as above; conditions: Postemergence
Source text: as §1, §2

[6] = system: beggarticks (hairy beggarticks, Bidens pilosa); test: as above; conditions: Postemergence
Source text: as §1, §2

[7] = system: arrowleaf sida (Sida rhombifolia); test: as above; conditions: Postemergence
Source text: as §1, §2

[8] = system: soybean (Glycine max); test: as above; conditions: Postemergence
Source text: as §1, §2

[9] = Postemergence, 31 g ai/ha, scale 0 to 100 (0 no effect, 100 complete control)
[10] = Postemergence, 125 g ai/ha, visual rating on scale 0 (no effect) to 100 (complete control), 14 to 21 d
[11] = Postemergence, 250 g ai/ha, scale 0 to 100 (0 no effect, 100 complete control)
[12] = Preemergence, 62 g ai/ha, scale 0 to 100 (0 no effect, 100 complete control)
[13] = Preemergence, 125 g ai/ha, scale 0 to 100 (0 no effect, 100 complete control)
[14] = Preemergence, 250 g ai/ha, scale 0 to 100 (0 no effect, 100 complete control)
[15] = postemergence, 62 g ai/ha, scale 0 to 100, 0 no effect, 100 complete control
[16] = 62 g ai/ha, scale 0 to 100 (0 no effect, 100 complete control)
[17] = 125 g ai/ha, scale 0 to 100 (0 no effect, 100 complete control)
[18] = 250 g ai/ha, scale 0 to 100 (0 no effect, 100 complete control)
[19] = 31 g ai/ha, visual, scale 0 no effect to 100 complete control

Row | SMILES | Wheat, Spring plant response rating [1, 9] | Plant response rating, Wheat, Spring [1, 10] | Plant response rating, Wheat, Spring [1, 11] | Plant response rating (scale of 0 to 100), Wheat, Spring ([1]; Preemergence, 31 g ai/ha) | Plant response rating, Wheat, Spring [1, 12] | Plant response rating, Wheat, Spring [1, 13] | Plant response rating, Wheat, Spring [1, 14] | Plant response rating, Wheat, Spring [1, 15] | Plant response rating, Panicum, Fall [2, 16] | Plant response rating, Panicum, Fall [2, 17] | Plant response rating, Panicum, Fall [2, 18] | Plant response rating, Panicum, Fall [2, 19] | Plant response rating, Dayflower, VA [3, 16] | Plant response rating, Dayflower, VA [3, 17] | Plant response rating, Dayflower, VA [3, 18] | Plant response rating, Dayflower, VA [3, 19] | Plant response rating, Horseweed [4, 16] | Plant response rating, Horseweed [4, 17] | Plant response rating, Horseweed [4, 18] | Plant response rating, Horseweed [4, 19] | other results
1 | Cc1ccc(-c2c(O)c(Br)nn(C)c2=O)c2ccccc12 [Compound 52] | 0 | 0 | 5 | 0 | 0 | 0 | 5 | 0 |  |  |  |  |  |  |  |  |  |  |  |  | 
2 | CSCC(=O)Oc1c(C)nn(C)c(=O)c1-c1cccc2ccccc12 [Compound 171] |  |  |  |  |  |  |  |  | 50 | 60 | 75 | 40 | 50 | 70 | 90 | 40 | 60 | 70 | 60 | 50 | Plant response rating, Field Bindweed [5, 16]: 85; Plant response rating, Field Bindweed [5, 17]: 100; Plant response rating, Field Bindweed [5, 18]: 100; Plant response rating, Field Bindweed [5, 19]: 70; Plant response rating, Beggarticks [6, 16]: 95; Plant response rating, Beggarticks [6, 17]: 100; Plant response rating, Beggarticks [6, 18]: 100; Plant response rating, Beggarticks [6, 19]: 80; Plant response rating, Arrowleaf Sida [7, 16]: 80; Plant response rating, Arrowleaf Sida [7, 17]: 90; Plant response rating, Arrowleaf Sida [7, 18]: 95; Plant response rating, Arrowleaf Sida [7, 19]: 80; Plant response rating, Soybean [8, 17]: 50; Plant response rating, Soybean [8, 18]: 70; Plant response rating, Soybean [8, 19]: 40
3 | Cc1nn(C)c(=O)c(-c2c(C)sc3ccc(Cl)cc23)c1O [Compound 104] | 10 | 20 | 30 | 0 |  | 35 | 45 | 15 |  |  |  |  |  |  |  |  |  |  |  |  | Plant response rating (scale of 0 to 100), Wheat, Spring ([1]; Preemergence, 62 g ai/ha): 15
4 | COc1nn(C)c(=O)c(-c2c(C)sc3ccc(Cl)cc23)c1O [Compound 100] |  |  |  |  |  |  |  |  | 50 | 70 | 80 | 30 | 0 | 0 | 0 | 0 | 70 | 75 | 80 | 35 | Plant response rating, Field Bindweed [5, 16]: 80; Plant response rating, Field Bindweed [5, 17]: 90; Plant response rating, Field Bindweed [5, 18]: 95; Plant response rating, Field Bindweed [5, 19]: 75; Plant response rating, Beggarticks [6, 16]: 80; Plant response rating, Beggarticks [6, 17]: 90; Plant response rating, Beggarticks [6, 18]: 100; Plant response rating, Beggarticks [6, 19]: 75; Plant response rating, Arrowleaf Sida [7, 16]: 60; Plant response rating, Arrowleaf Sida [7, 17]: 70; Plant response rating, Arrowleaf Sida [7, 18]: 75; Plant response rating, Arrowleaf Sida [7, 19]: 50; Plant response rating, Soybean [8, 17]: 0; Plant response rating, Soybean [8, 18]: 0; Plant response rating, Soybean [8, 19]: 0
5 | Cc1ccc2ccc(C)c(-c3c(O)c(C)nn(C)c3=O)c2c1 [Compound 60] | 30 | 40 | 55 | 35 | 55 | 65 | 75 | 35 |  |  |  |  |  |  |  |  |  |  |  |  | 
6 | COc1nn(C)c(=O)c(-c2c(C)ccc3ccccc23)c1OC(=O)OC(C)C [Compound 36] | 0 | 0 | 10 | 0 | 0 | 0 | 30 | 0 |  |  |  |  |  |  |  |  |  |  |  |  | 
